By inhibition is commonly meant the drop in the measured response relative to a control, in per cent. As a reminder, the IC50 is the concentration that inhibits the measured activity by half.

Several values for one entry are separate records, joined by “and”; a condition that tells them apart may be missing. Identical values can stand only once.

In patent publication US7125878B2, “Substituted pyrroline kinase inhibitors” (Janssen Pharmaceutica, priority 2002, dated 2006) one finds inhibition and IC50 data, which are given here for 34 compounds.

T1 sequence (G1T8E2 1-432): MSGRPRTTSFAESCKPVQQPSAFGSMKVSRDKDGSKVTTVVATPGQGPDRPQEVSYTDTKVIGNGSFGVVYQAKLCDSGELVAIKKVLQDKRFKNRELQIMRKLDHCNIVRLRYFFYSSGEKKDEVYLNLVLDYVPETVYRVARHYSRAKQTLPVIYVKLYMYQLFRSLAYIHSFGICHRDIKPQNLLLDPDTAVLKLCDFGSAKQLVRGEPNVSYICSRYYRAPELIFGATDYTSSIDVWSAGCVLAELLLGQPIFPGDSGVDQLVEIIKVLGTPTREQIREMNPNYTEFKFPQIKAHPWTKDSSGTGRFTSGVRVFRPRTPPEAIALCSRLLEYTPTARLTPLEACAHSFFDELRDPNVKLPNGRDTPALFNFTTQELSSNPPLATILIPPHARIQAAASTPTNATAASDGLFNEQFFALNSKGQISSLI

The first assay addresses T1, recombinant rabbit GSK-3β protein (Oryctolagus cuniculus, UniProt G1T8E2).
T1 construct: purchased New England Biolabs
The assay can be described thus: Glycogen Synthase Kinase-3 Assay (33P phosphorylation of PPI-2). The format is biochemical. As to conditions: @100 nM. The procedure: Glycogen Synthase Kinase-3 Assay
Compounds were tested for the ability to inhibit recombinant rabbit GSK-3β protein using the following protocol. The test compound was added to a reaction mixture containing Protein Phosphatase Inhibitor-2 (PPI-2) (Calbiochem) (45 ng), rabbit GSK-3β protein (New England Biolabs) (0.75 units) and ^33P-ATP (1 μCi) in 50 mM Tris-HCl (pH 8.0), 10 mM MgCl2, 0.1% BSA, 1 mM DTT and 100 μM Sodium Vanadate. The mixture was reacted for 90 minutes at 30° C. to allow phosphorylation of the PPI-2 protein and then the protein in the reaction was precipitated using 10% TCA. The precipitated protein was collected on filter plates (MultiScreen-DV/Millipore), which were subsequently washed. Finally, the radioactivity was quantified using a TopCount Scintillation Counter (Packard). […] Staurosporine or Valproate, known inhibitors of GSK-3β, were used as a positive control for screening.
Regarding `O=C1NC(=O)C(c2cn(CCCO)c3ncccc23)=C1c1n[nH]c2ccccc12` [Cpd 6, 3-[1-(3-hydroxypropyl)-1H-pyrrolo[2,3-b]pyridin-3-yl]-4-(1H-indazol-3-yl)-1H-pyrrole-2,5-dione], the inhibition at 0.1 µM was determined as 56%. On the same count and under the same terms, the same measure for `O=C1NC(=O)C(c2cn(CCCO)c3ncccc23)=C1c1ncc[nH]1` [Cpd 17, 3-[1-(3-hydroxypropyl)-1H-pyrrolo[2,3-b]pyridin-3-yl]-4-(1H-imidazol-2-yl)-1H-pyrrole-2,5-dione]: 19%.

Staying with this assay, now noted: @200 nM.
Consider `O=C1NC(=O)C(c2cn(CCCO)c3ncccc23)=C1c1cn(CCCO)cn1` [Cpd 18, 3-[1-(3-hydroxypropyl)-1H-imidazol-4-yl]-4-[1-(3-hydroxypropyl)-1H-pyrrolo[2,3-b]pyridin-3-yl]-1H-pyrrole-2,5-dione], for which the inhibition at 0.2 µM came to 29%. The same measure, in the same setting: to `O=C1NC(=O)C(c2cn(CCCO)c3ncccc23)=C1c1cn(CCO)cn1` [Cpd 19, 3-[1-(2-hydroxyethyl)-1H-imidazol-4-yl]-4-[1-(3-hydroxypropyl)-1H-pyrrolo[2,3-b]pyridin-3-yl]-1H-pyrrole-2,5-dione] belongs 25%.

The same assay, now with this note: @1 μM; two numbers = different days.
With `Cc1noc(C)c1C1=C(c2cn(CCCO)c3ncccc23)C(=O)NC1=O` [Cpd 44, 3-(3,5-Dimethyl-isoxazol-4-yl)-4-[1-(3-hydroxy-propyl)-1H-pyrrolo[2,3-b]pyridin-3-yl]-pyrrole-2,5-dione], the inhibition at 1 µM is 32%. Same read-out and setting: the same measure for `O=C1NC(=O)C(c2cn(CCCO)c3ncccc23)=C1c1ncccn1` [Cpd 56, 3-[1-(3-Hydroxy-propyl)-1H-pyrrolo[2,3-b]pyridin-3-yl]-4-pyrimidin-2-yl-pyrrole-2,5-dione]: 23%.

The assay is the same for the next values; noted with them: two numbers = data obtained on different days.
Regarding `CCn1cc(C2=C(c3cn(CCCO)c4ncccc34)C(=O)NC2=O)c2cccnc21` [Cpd 7, 3-(1-ethyl-1H-pyrrolo[2,3-b]pyridin-3-yl)-4-[1-(3-hydroxypropyl)-1H-pyrrolo[2,3-b]pyridin-3-yl]-1H-pyrrole-2,5-dione], the IC50 turned out to be 0.051 µM. Same read-out and setting: the same measure for `COc1ccccc1C1=C(c2cn(CCCO)c3ncccc23)C(=O)NC1=O` [Cpd 8, 3-[1-(3-hydroxypropyl)-1H-pyrrolo[2,3-b]pyridin-3-yl]-4-(2-methoxyphenyl)-1H-pyrrole-2,5-dione]: 0.003 µM; for `COc1cccc(C2=C(c3cn(CCCO)c4ncccc34)C(=O)NC2=O)c1` [Cpd 9, 3-[1-(3-hydroxypropyl)-1H-pyrrolo[2,3-b]pyridin-3-yl]-4-(3-methoxyphenyl)-1H-pyrrole-2,5-dione]: 0.011 µM; for `O=C1NC(=O)C(c2cn(CCCO)c3ncccc23)=C1c1ccc(F)cc1Cl` [Cpd 10, 3-(2-chloro-4-fluorophenyl)-4-[1-(3-hydroxypropyl)-1H-pyrrolo[2,3-b]pyridin-3-yl]-1H-pyrrole-2,5-dione]: 0.01 µM. On the same count and under the same terms, to `O=C1NC(=O)C(c2cn(CCCO)c3ncccc23)=C1c1ccccc1C(F)(F)F` [Cpd 11, 3-[1-(3-hydroxypropyl)-1H-pyrrolo[2,3-b]pyridin-3-yl]-4-[2-(trifluoromethyl)phenyl]-1H-pyrrole-2,5-dione] belongs 0.004 µM; to `O=C1NC(=O)C(c2cn(CCCO)c3ncccc23)=C1c1ncc(C(F)(F)F)cc1Cl` [Cpd 13, 3-[3-chloro-5-(trifluoromethyl)-2-pyridinyl]-4-[1-(3-hydroxypropyl)-1H-pyrrolo[2,3-b]pyridin-3-yl]-1H-pyrrole-2,5-dione], 0.036 µM; to `O=C1NC(=O)C(c2cn(CCCO)c3ncccc23)=C1c1cccs1` [Cpd 14, 3-[1-(3-hydroxypropyl)-1H-pyrrolo[2,3-b]pyridin-3-yl]-4-(2-thienyl)-1H-pyrrole-2,5-dione], 0.006 µM. On the same count and under the same terms, to `O=C1NC(=O)C(c2cn(CCCO)c3ncccc23)=C1c1cc(Cl)sc1Cl` [Cpd 15, 3-(2,5-dichloro-3-thienyl)-4-[1-(3-hydroxypropyl)-1H-pyrrolo[2,3-b]pyridin-3-yl]-1H-pyrrole-2,5-dione] belongs 0.006 µM; to `O=C1NC(=O)C(c2cn(CCCO)c3ncccc23)=C1c1ccn(CCCO)n1` [Cpd 16, 3-[1-(3-hydroxypropyl)-1H-pyrazol-3-yl]-4-[1-(3-hydroxypropyl)-1H-pyrrolo[2,3-b]pyridin-3-yl]-1H-pyrrole-2,5-dione], 0.1 µM; to `O=C1NC(=O)C(c2cn(CCCO)c3ncccc23)=C1/C=C/c1ccc(F)cc1` [Cpd 22, 3-[(E)-2-(4-fluorophenyl)ethenyl]-4-[1-(3-hydroxypropyl)-1H-pyrrolo[2,3-b]pyridin-3-yl]-1H-pyrrole-2,5-dione], 0.33 µM.

For `O=C1NC(=O)C(c2cn(CCCO)c3ncccc23)=C1C1=CCCCO1` [Cpd 23, 3-(3,4-dihydro-2H-pyran-6-yl)-4-[1-(3-hydroxypropyl)-1H-pyrrolo[2,3-b]pyridin-3-yl]-1H-pyrrole-2,5-dione], the 50% inhibitory concentration (IC50) was 0.158 µM and 0.051 µM. Same read-out and setting: to `O=C1NC(=O)C(c2cn(CCCO)c3ncccc23)=C1c1cc[nH]c1` [Cpd 24, 4-[1-(3-hydroxypropyl)-1H-pyrrolo[2,3-b]pyridin-3-yl]-[3,3′-bi-1H-pyrrole]-2,5-dione] belongs 0.015 µM and 0.008 µM.

Consider `O=C1NC(=O)C(c2cn(CCCO)c3ncccc23)=C1c1cc2ccccc2o1` [Cpd 25, 3-(2-benzofuranyl)-4-[1-(3-hydroxypropyl)-1H-pyrrolo[2,3-b]pyridin-3-yl]-1H-pyrrole-2,5-dione], for which the IC50 was 0.071 µM and 0.044 µM.

For the compound `Cn1ccc(C2=C(c3cn(CCCO)c4ncccc34)C(=O)NC2=O)n1` [Cpd 26, 3-[1-(3-hydroxypropyl)-1H-pyrrolo[2,3-b]pyridin-3-yl]-4-(1-methyl-1H-pyrazol-3-yl)-1H-pyrrole-2,5-dione], the IC50 is 0.07 µM and 0.12 µM. Still for that read-out and setting: the same measure for `O=C1NC(=O)C(c2cn(CCCO)c3ncccc23)=C1c1ccc(O)c(O)c1` [Cpd 32, 3-(3,4-dihydroxyphenyl)-4-[1-(3-hydroxypropyl)-1H-pyrrolo[2,3-b]pyridin-3-yl]-1H-pyrrole-2,5-dione]: 0.067 µM and 0.095 µM; for `O=C1NC(=O)C(c2cn(CCCO)c3ncccc23)=C1c1cncnc1` [Cpd 41, 3-[1-(3-Hydroxy-propyl)-1H-pyrrolo[2,3-b]pyridin-3-yl]-4-pyrimidin-5-yl-pyrrole-2,5-dione]: 0.037 µM and 0.042 µM; for `O=C1NC(=O)C(c2cccc3cccnc23)=C1c1cn(CCCO)c2ncccc12` [Cpd 42, 3-[1-(3-Hydroxy-propyl)-1H-pyrrolo[2,3-b]pyridin-3-yl]-4-quinolin-8-yl-pyrrole-2,5-dione]: 0.123 µM and 0.106 µM. On the same count and under the same terms, the same measure for `O=C1NC(=O)C(c2cn(CCCO)c3ncccc23)=C1c1cc2ccccc2s1` [Cpd 43, 3-Benzo[b]thiophen-2-yl-4-[1-(3-hydroxy-propyl)-1H-pyrrolo[2,3-b]pyridin-3-yl]-pyrrole-2,5-dione]: 0.198 µM and 0.126 µM; for `O=C1NC(=O)C(c2cn(CCCO)c3ncccc23)=C1c1cccoc1=O` [Cpd 45, 3-[1-(3-Hydroxy-propyl)-1H-pyrrolo[2,3-b]pyridin-3-yl]-4-(2-oxo-2H-pyran-3-yl)-pyrrole-2,5-dione]: 0.028 µM and 0.018 µM.

In the case of `Cn1ccc(C2=C(c3cn(CCCO)c4ncccc34)C(=O)NC2=O)c1` [Cpd 46, 4-[1-(3-Hydroxy-propyl)-1H-pyrrolo[2,3-b]pyridin-3-yl]-1′-methyl-1′H-[3,3′]bipyrrolyl-2,5-dione], the IC50 is 0.038 µM and 0.037 µM.

`O=C1NC(=O)C(c2cn(CCCO)c3ncccc23)=C1c1ccn(Cc2ccccc2)c1` [Cpd 48, 1′-Benzyl-4-[1-(3-hydroxy-propyl)-1H-pyrrolo[2,3-b]pyridin-3-yl]-1′H-[3,3′]bipyrrolyl-2,5-dione]: the half-maximal inhibitory concentration (IC50) is 0.047 µM and 0.038 µM. On the same count and under the same terms, the same measure for `O=C1NC(=O)C(c2cn(CCCO)c3ncccc23)=C1c1cnc(-c2ccccc2)o1` [Cpd 49, 3-[1-(3-Hydroxy-propyl)-1H-pyrrolo[2,3-b]pyridin-3-yl]-4-(2-phenyl-oxazol-5-yl)-pyrrole-2,5-dione]: 0.056 µM and 0.058 µM; for `O=C1NC(=O)C(c2cn(CCCO)c3ncccc23)=C1c1cc2n(n1)CCC2` [Cpd 50, 3-(5,6-Dihydro-4H-pyrrolo[1,2-b]pyrazol-2-yl)-4-[1-(3-hydroxy-propyl)-1H-pyrrolo[2,3-b]pyridin-3-yl]-pyrrole-2,5-dione]: 0.088 µM and 0.107 µM; for `O=C1NC(=O)C(c2cn(CCCO)c3ncccc23)=C1C1=COCCO1` [Cpd 51, 3-(5,6-Dihydro-[1,4]dioxin-2-yl)-4-[1-(3-hydroxy-propyl)-1H-pyrrolo[2,3-b]pyridin-3-yl]-pyrrole-2,5-dione]: 0.15 µM and 0.187 µM. On the same count and under the same terms, the same measure for `O=C1NC(=O)C(c2cn(CCCO)c3ncccc23)=C1c1ccco1` [Cpd 53, 3-Furan-2-yl-4-[1-(3-hydroxy-propyl)-1H-pyrrolo[2,3-b]pyridin-3-yl]-pyrrole-2,5-dione]: 0.211 µM and 0.143 µM; for `O=C1NC(=O)C(c2cn(CCCO)c3ncccc23)=C1c1cc2n(n1)CCCC2` [Cpd 54, 3-[1-(3-Hydroxy-propyl)-1H-pyrrolo[2,3-b]pyridin-3-yl]-4-(4,5,6,7-tetrahydro-pyrazolo[1,5-a]pyridin-2-yl)-pyrrole-2,5-dione]: 0.232 µM and 0.161 µM; for `COc1ncc(C2=C(c3cn(CCCc4ccccc4)c4ncccc34)C(=O)NC2=O)c(OC)n1` [Cpd 57, 3-(2,4-Dimethoxy-pyrimidin-5-yl)-4-[1-(3-phenyl-propyl)-1H-pyrrolo[2,3-b]pyridin-3-yl]-pyrrole-2,5-dione]: 0.015 µM and 0.01 µM. With `O=C1NC(=O)C(c2cn(CCCc3ccccc3)c3ncccc23)=C1c1cncnc1` [Cpd 58, 3-[1-(3-Phenyl-propyl)-1H-pyrrolo[2,3-b]pyridin-3-yl]-4-pyrimidin-5-yl-pyrrole-2,5-dione], the IC50 was 0.366 µM and 0.344 µM.
